Measured values as given in PMC11324527, “Cryo-EM architecture of a near-native stretch-sensitive membrane microdomain” (Nature, 2024).

Legend:
[1] = target: T1, Pil1 (recombinant, reconstituted tubules) (Saccharomyces cerevisiae, UniProt P53252); assay: cryo-EM helical reconstruction of reconstituted tubules; type: binding
T1 construct: PIL1 in pCoofy6, 6xHis-Sumo3 tag cleaved by SenP2, E. coli BL21(DE3)pLysS; homodimer in helical lattice on lipid tubules; model stops before residue 275
T1 sequence (P53252 1-339): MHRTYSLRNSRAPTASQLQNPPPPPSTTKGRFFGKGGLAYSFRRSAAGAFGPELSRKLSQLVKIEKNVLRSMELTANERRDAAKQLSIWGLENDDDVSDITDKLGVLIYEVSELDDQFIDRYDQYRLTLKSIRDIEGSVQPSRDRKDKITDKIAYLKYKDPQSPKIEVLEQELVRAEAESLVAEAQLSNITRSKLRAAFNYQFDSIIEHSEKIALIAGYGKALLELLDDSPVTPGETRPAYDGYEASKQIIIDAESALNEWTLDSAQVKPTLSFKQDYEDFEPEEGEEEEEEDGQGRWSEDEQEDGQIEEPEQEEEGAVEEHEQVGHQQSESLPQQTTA

[2] = target: Pil1–mCherry (Saccharomyces cerevisiae, UniProt P53252); settings: labelled compound; 1% PI(4,5)P2; PI(4,5)P2-dependent; pH 7.4, 150 mM KoAc, 2 mM MgAc
[3] = target: the molecule itself; assay: cryo-EM structure; native-source eisosome tubules isolated from S. cerevisiae with bound plasma membrane bilayer; helical reconstruction of nine tubule types, symmetry expansion and density subtraction; dimers in a helical lattice
[4] = target: the molecule itself; assay: cryo-EM structure; 15-20 uM recombinant Pil1 with about 2 mg/ml LUVs of known lipid mixtures, 30 °C for one hour, 20 mM HEPES pH 7.4, 150 mM KoAc, 2 mM MgAc; helical reconstruction; dimers in a helical lattice

## CCCCCCCC/C=C\CCCCCCCC(=O)OC[C@H](COP(=O)(O)OC[C@H](N)C(=O)O)OC(=O)CCCCCCC/C=C\CCCCCCCC [DOPS]
[1]; +PI(4,5)P2/+sterol (15% cholesterol) mixture, site R43, K66, R70
  cryo-EM helical reconstruction of reconstituted tubules: This density accommodates a phosphatidylserine (PS) lipid (DOPS is present in our lipid mixtures)

## CC1=CC(C)=[N+]2C1=C(CC[C@@H](C)[C@H]1CC[C@H]3[C@@H]4CC=C5C[C@@H](O)CC[C@]5(C)[C@H]4CC[C@]13C)c1c(C)cc(C)n1[B-]2(F)F [TF-cholesterol]
[2]
  mobile fraction: immobilized fraction of cholesterol interacts strongly with Pil1 and/or other lipids bound to the protein

## CC(C)CCC[C@@H](C)[C@H]1CC[C@H]2[C@@H]3CC=C4C[C@@H](O)CC[C@]4(C)[C@H]3CC[C@]12C [cholesterol]
[1]; +PI(4,5)P2/+sterol (15% cholesterol), void pattern below amphipathic helix, sterol not modelled
  cryo-EM helical reconstruction of reconstituted tubules: this pattern results from the stable association of sterol molecules with the AH

B1: Pil1 (native-source eisosome) (natural protein, S. cerevisiae (endogenous in yeast), UniProt P53252 1-339, looked up)
chain: MHRTYSLRNSRAPTASQLQNPPPPPSTTKGRFFGKGGLAYSFRRSAAGAFGPELSRKLSQLVKIEKNVLRSMELTANERRDAAKQLSIWGLENDDDVSDITDKLGVLIYEVSELDDQFIDRYDQYRLTLKSIRDIEGSVQPSRDRKDKITDKIAYLKYKDPQSPKIEVLEQELVRAEAESLVAEAQLSNITRSKLRAAFNYQFDSIIEHSEKIALIAGYGKALLELLDDSPVTPGETRPAYDGYEASKQIIIDAESALNEWTLDSAQVKPTLSFKQDYEDFEPEEGEEEEEEDGQGRWSEDEQEDGQIEEPEQEEEGAVEEHEQVGHQQSESLPQQTTA
notes: Pil1, BAR-domain eisosome protein of S. cerevisiae; model built up to residue 274 (C-terminal region from residue 275 removed, no density); Stands in the tubules as dimers in a helical lattice; also called Pil1/Lsp1; PIL1_YEAST; source: endogenous, untagged, S. cerevisiae
[3]
  stoichiometry N: 2

B2: Recombinant Pil1 (natural protein, S. cerevisiae, UniProt P53252 1-339, looked up)
chain: MHRTYSLRNSRAPTASQLQNPPPPPSTTKGRFFGKGGLAYSFRRSAAGAFGPELSRKLSQLVKIEKNVLRSMELTANERRDAAKQLSIWGLENDDDVSDITDKLGVLIYEVSELDDQFIDRYDQYRLTLKSIRDIEGSVQPSRDRKDKITDKIAYLKYKDPQSPKIEVLEQELVRAEAESLVAEAQLSNITRSKLRAAFNYQFDSIIEHSEKIALIAGYGKALLELLDDSPVTPGETRPAYDGYEASKQIIIDAESALNEWTLDSAQVKPTLSFKQDYEDFEPEEGEEEEEEDGQGRWSEDEQEDGQIEEPEQEEEGAVEEHEQVGHQQSESLPQQTTA
notes: Pil1 of S. cerevisiae, PIL1 cloned into pCoofy6 with primers from the start codon to the stop codon; Vector pCoofy6 (Addgene plasmid 43990) gives 6xHis-Sumo3; the Sumo3 tag was cleaved off with SenP2; It forms dimers in a helical lattice on liposomes; also called purified Pil1; reconstituted Pil1; source: E. coli BL21(DE3)pLysS, purified (HisTrap, HiTrap Q, SenP2 cleavage, Superdex 200); not …
[4]
  stoichiometry N: 2
